Test results as given in patent US8236346B2, “Method for reducing amyloid deposition, amyloid neurotoxicity, and microgliosis with (-)-nilvadipine enantiomer” (Alzheimer's Institute of America, Inc, priority 2007, dated 2012).
Blank lines part the entries; values can stand above or below the molecule they belong to.

Columns and labels:
[1] = test system: 7W WT APP751 Chinese hamster ovary cells; assay: Aβ1-40 and Aβ1-42 production by ELISA; assay type: cell-based; conditions: 24 hours treatment
Protocol: Production of Aβ1-40 and Aβ1-42 in the culture medium was measured by using a commercially available human Aβ1-40 ELISA (Biosource, CA) and commercially available human Aβ1-42 ELISA (Biosource, CA), respectively.

[2] = target: L-type calcium channels (Rattus norvegicus, UniProt P22002); assay: FPL64176 induced vasoconstriction in rat aortae; conditions: 100 nM, 2 min prior to 1 μM FPL64176
[3] = test system: Aβ deposits; conditions: Lim et al., J. Neurosci. 2000; cited from earlier work
[4] = test system: Aβ deposition (amyloid burden); assay: Chronic administration of nilvadipine on Aβ deposition (amyloid burden), 4G8 immunostaining; assay type: in vivo, TgAPPsw mice
Protocol: The 4G8 immunostaining technique was chosen for determining the Aβ burden because of its robust signal and optimal results for quantitative analysis of Aβ deposition. Briefly, paraffin sections were subjected to immunohistochemistry as described previously (Nakagawa, Y et al., Exp. Neurol., 163:244-252, 2000). Sections were deparaffinized in xylene, hydrated in a series of ethanol and deionized water, and subjected to an antigen retrieval step by immersing sections in 88% formic acid for 60 min before immunohistochemistry for Aβ. Sections were washed in water, and endogenous peroxidases were quenched using a freshly prepared mixture of methanol (150 ml) plus hydrogen peroxide (33%, 30 ml). The avidin-biotin complex method was used according to the instructions of the vendor (Vector Laboratories, Burlingame, Calif.). Amyloid burden was assessed by determining the percentage of the brain region that stained positive for Aβ. Negative controls included the application of the same immunohistochemistry protocol to sections, except preimmune serum was applied instead of primary antibody.

[5] = test system: CD45+ microglia; assay: Chronic administration of nilvadipine on microglial activation, CD45 immunostaining; assay type: in vivo, TgAPPsw mice
Protocol: Briefly, immunohistochemistry for CD45, a specific marker of microglia, was conducted on the cryostat brain sections. CD45-positive microglial cells were immunolocalized by incubation with a mouse monoclonal antibody against CD45 (Chemicon International) overnight at 4° C., followed by application of a biotinylated rabbit anti-mouse secondary antibody for 30 minutes. Detection of CD45 was completed with diaminobenzidine chromogen substrate, which produces a brown cell surface stain on CD45-positive microglial cells.

[6] = test system: N9 murine microglial cells; assay: LPS-induced microglial activation, TNF-α production by ELISA; assay type: cell-based
Protocol: N9 murine microglial cells are well characterized scavenger murine microglial clones derived from embryonic mouse brain. The extent of microglial activation was determined by TNF-α production (pg/ml) measured by ELISA. […] Microglial cells in the presence of 1 μg/ml LPS produced about 820 pg/ml TNF-α, an […] from the control cells and nilvadipine-administered cells.

[7] = test system: human neuronal progenitor cells (HNPC); assay: Aβ neurotoxicity, LDH release; assay type: cell-based; conditions: 100 nM nilvadipine with 30 μM AgAβ, three days
Protocol: Cyclic AMP (1 mM) (Sigma) was added to the culture medium and the HNPC cells were incubated at 37° C. for 48 hours or more under serum free conditions. This medium allowed differentiation of the progenitors into cells of neuronal lineage, as was confirmed by the staining of most of the cells with antibodies against the microtubule-associated protein, MAP-2. Neurotoxicity was assessed by measuring the amount of lactic dehydrogenase (LDH; an intracellular enzyme found in all cells) released from the cells.

[8] = test system: human glioblastoma cells transfected with APPsw; assay: APP processing, Aβ1-40 production by ELISA; assay type: cell-based

Sequence of L-type calcium channels (P22002 whole entry): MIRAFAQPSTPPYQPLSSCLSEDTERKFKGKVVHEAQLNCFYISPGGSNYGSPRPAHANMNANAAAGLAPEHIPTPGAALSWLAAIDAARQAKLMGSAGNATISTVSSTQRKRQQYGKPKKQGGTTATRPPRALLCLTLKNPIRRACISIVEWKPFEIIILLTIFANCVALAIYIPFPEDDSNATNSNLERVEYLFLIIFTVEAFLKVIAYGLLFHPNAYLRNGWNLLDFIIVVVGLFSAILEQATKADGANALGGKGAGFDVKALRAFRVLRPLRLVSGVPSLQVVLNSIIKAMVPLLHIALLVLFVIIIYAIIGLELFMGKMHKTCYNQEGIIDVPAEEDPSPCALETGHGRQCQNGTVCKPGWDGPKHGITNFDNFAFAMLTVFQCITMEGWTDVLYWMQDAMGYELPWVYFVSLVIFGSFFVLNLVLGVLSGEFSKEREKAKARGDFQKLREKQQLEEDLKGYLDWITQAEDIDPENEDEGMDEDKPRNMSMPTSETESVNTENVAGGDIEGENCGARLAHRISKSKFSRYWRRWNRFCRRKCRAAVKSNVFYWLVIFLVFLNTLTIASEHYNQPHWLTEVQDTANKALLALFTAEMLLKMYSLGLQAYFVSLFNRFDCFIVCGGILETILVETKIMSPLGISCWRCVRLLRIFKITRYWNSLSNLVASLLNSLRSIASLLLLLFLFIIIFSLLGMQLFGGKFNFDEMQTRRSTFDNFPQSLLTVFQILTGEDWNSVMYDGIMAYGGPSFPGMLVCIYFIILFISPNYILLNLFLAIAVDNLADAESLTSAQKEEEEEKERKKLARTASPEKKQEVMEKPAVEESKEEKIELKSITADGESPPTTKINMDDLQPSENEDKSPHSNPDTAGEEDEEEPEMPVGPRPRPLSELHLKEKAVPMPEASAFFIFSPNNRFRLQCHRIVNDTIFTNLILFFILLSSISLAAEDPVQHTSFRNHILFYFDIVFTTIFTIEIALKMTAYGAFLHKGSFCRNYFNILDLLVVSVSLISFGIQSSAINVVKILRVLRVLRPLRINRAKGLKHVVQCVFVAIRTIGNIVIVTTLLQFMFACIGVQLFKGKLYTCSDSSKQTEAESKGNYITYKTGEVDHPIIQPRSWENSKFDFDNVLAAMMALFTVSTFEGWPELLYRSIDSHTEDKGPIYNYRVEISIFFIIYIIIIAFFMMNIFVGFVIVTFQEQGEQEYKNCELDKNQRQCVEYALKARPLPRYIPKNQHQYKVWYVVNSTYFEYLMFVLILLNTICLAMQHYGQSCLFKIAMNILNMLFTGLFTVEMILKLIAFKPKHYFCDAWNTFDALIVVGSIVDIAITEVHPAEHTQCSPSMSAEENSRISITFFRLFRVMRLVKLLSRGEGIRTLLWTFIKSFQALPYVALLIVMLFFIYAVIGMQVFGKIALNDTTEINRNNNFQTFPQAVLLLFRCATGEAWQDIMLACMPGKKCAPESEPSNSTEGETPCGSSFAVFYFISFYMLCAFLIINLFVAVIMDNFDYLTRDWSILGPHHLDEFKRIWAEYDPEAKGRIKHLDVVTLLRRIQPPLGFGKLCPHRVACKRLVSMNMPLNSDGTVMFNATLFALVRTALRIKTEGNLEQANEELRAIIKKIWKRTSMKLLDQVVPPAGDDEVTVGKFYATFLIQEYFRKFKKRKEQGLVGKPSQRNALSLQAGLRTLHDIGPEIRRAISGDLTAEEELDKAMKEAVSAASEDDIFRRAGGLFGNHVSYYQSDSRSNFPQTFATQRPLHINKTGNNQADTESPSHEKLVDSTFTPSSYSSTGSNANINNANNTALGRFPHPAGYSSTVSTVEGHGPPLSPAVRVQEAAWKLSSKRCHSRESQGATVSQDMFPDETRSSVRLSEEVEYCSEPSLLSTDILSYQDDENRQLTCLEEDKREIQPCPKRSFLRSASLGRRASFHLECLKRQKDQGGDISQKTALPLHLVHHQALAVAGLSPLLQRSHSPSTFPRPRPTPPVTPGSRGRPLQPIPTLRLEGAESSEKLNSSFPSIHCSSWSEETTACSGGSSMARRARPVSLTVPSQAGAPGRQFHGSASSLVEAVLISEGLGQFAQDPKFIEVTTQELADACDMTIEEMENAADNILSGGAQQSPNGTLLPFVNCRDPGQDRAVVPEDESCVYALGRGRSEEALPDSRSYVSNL
Sequence of L-type calcium channels (P54290 25-944 partner limits assumed): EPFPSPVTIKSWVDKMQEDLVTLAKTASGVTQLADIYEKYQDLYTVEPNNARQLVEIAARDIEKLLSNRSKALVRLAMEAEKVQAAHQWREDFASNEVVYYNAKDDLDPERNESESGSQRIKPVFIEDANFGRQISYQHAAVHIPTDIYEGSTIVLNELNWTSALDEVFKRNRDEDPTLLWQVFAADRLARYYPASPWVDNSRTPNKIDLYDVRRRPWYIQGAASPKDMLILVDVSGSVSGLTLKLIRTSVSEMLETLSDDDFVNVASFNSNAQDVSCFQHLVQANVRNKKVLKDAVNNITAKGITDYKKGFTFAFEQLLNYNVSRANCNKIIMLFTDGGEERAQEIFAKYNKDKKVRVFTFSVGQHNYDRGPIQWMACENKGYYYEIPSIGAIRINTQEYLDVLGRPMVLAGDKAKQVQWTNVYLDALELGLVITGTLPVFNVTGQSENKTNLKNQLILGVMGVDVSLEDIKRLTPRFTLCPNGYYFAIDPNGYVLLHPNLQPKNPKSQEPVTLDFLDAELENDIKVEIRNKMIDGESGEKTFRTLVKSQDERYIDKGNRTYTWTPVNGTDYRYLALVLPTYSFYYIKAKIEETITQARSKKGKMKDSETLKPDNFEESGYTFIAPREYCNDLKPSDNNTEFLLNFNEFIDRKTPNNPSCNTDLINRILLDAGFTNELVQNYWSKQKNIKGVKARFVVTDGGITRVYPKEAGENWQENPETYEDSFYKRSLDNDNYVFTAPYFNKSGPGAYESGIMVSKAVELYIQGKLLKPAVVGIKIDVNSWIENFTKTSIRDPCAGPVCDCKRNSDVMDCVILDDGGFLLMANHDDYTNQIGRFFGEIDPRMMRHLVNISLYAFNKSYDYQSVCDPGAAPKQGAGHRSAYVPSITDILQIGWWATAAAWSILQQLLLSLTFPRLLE
Sequence of L-type calcium channels (P54290 945-1091 partner limits assumed): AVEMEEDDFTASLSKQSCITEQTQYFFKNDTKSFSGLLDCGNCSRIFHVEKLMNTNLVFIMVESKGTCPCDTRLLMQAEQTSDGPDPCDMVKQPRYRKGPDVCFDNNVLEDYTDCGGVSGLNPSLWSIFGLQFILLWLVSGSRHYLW

effect on FPL64176 induced vasoconstriction [2]: completely antagonizes
Compound: COC(=O)C1=C(C#N)NC(C)=C(C(=O)OC(C)C)[C@H]1c1cccc([N+](=O)[O-])c1 [(+)-nilvadipine]
effect on Aβ1-40 production ([1]; dose response): dose dependently inhibit
effect on Aβ1-42 production ([1]; low dose): slightly stimulate

Compound: CC(C)Cc1ccc(C(C)C(=O)O)cc1 (stereo not drawn) [ibuprofen]
effect on Aβ deposits, astrocytosis and dystrophic neuritis [3]: reduction in Aβ deposits, astrocytosis, and dystrophic neuritis

Compound: COC(=O)C1=C(C#N)NC(C)=C(C(=O)OC(C)C)C1c1cccc([N+](=O)[O-])c1 (racemic) [nilvadipine, isopropyl-3-methyl-2-cyano-1,4-dihydro-6-methyl-4-(m-nitrophenyl)-3,5-pyridine-dicarboxylate]
reduction of Aβ burden compared to controls ([4]; CA1 region of the hippocampus): about 52%
reduction of Aβ burden compared to controls ([4]; CA2-CA3 region of the hippocampus): about 50%
reduction of Aβ burden compared to controls ([4]; motor cortex): about 58%
reduction of Aβ burden compared to controls ([4]; parietal cortex): about 65%
reduction of Aβ burden compared to controls ([4]; pyriform cortex): about 58%
reduction of Aβ burden compared to controls ([4]; visual cortex): about 62%
reduction of microglial activation compared to controls ([5]; hippocampus): about 33%
reduction of microglial activation compared to controls ([5]; motor cortex): about 27%
reduction of microglial activation compared to controls ([5]; parietal cortex): about 43%
TNF-α production ([6]; 50 nM nilvadipine, no LPS): about 40 pg/ml
TNF-α production ([6]; 1 μg/ml LPS plus 50 nM nilvadipine, 24 hours): about 670 pg/ml
TNF-α production ([6]; 1 μg/ml LPS plus 500 nM nilvadipine, 24 hours): about 610 pg/ml
decrease of LDH release [7]: about 44%
reduction of Aβ1-40 production ([8]; 50 nM, 24 hours): about 9%
reduction of Aβ1-40 production ([8]; 50 nM, 48 hours): about 18%
reduction of Aβ1-40 production ([8]; 250 nM, 24 hours): about 15%
reduction of Aβ1-40 production ([8]; 250 nM, 48 hours): about 5%
